Patent US20090029366A1 (priority 2007, published 2009)

Tests used:
human HCN1 [1] = biological target: T1, human HCN1 (Homo sapiens, UniProt O60741); experiment: MPSD FLIPR 96 well hyperpolarization assay, HCN1; format: cell-based; parameters: blockade of hyperpolarization (change in fluorescence), FIG. 4 legend: dose or concentration left out as unconfirmed
T1 construct: expressed in transfected cells; host or cells: HEK-293H
T1 sequence (O60741 1-890): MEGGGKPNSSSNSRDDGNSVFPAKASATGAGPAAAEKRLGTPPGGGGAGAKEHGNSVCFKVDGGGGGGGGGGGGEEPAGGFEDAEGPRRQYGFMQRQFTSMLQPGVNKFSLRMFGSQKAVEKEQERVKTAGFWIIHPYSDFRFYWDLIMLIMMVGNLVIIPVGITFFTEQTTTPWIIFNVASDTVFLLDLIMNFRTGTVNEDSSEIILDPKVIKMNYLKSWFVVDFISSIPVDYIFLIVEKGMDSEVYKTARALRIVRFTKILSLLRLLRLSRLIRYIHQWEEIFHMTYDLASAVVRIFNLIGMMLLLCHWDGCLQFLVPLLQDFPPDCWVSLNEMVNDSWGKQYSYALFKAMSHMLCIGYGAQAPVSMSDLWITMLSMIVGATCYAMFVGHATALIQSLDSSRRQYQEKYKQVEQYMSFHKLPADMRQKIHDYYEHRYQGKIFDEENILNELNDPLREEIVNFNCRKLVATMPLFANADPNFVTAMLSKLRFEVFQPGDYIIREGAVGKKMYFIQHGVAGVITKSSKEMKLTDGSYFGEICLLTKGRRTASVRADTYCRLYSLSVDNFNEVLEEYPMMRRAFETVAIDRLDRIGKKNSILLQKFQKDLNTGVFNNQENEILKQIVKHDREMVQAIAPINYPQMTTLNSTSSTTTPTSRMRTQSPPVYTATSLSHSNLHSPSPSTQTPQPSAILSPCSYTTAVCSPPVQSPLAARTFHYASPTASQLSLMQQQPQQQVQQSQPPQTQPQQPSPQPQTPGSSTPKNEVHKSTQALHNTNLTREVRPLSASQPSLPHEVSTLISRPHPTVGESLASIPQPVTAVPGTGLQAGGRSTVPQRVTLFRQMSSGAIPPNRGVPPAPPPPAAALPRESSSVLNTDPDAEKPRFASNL
Description: The above-described assay was modified for use with the FLIPR®^96 or FLEX^96 96 well plate format. In brief, cells stably expressing HCN channels were plated at 40-80×10^3 cells/plate in 100-150 μl/well of DMEM supplemented with 10% fetal bovine serum, 1× NEAA, and 1× penicillin/streptomycin. Cells were cultured for 24-48 hours in a 5% CO2/air humidifiedincubator at 37° C. Cells were incubated in 30 μl/well of HBSS containing MPSD, as described above, for 15-45 minutes at room temperature.
Membrane potentials were measured at room temperature (21°-23°) using a FLIPR® system or a FLEXSTATION® (Molecular Devices of Sunnydale, Calif.). Control cells were incubated in HBSS/MPSD without a test agent. For identification of HCN channel modulators, cells were incubated in HBSS/MPSD and the presence of a test agent as described in Examples 5 and 6 herein below.
HEK-293H cells stably expressing HCN1 or HCN3 channels were each plated at 40-80×10^3 cells/plate in a FLIPR®^96 well format in 100-150 μl/ well of DMEM supplemented with 10% fetal bovine serum and penicillin/streptomycin. The cells were cultured for 24-48 hours in a 5% CO2/air humidified incubatorat 37° C.
[…] Cells were incubated for 15 to 45 minutes. […] The change in fluorescence (ΔF) was measured for a total assay time of about 100 seconds. […]

human HCN1 [2] = biological target: T1, human HCN1; experiment: MPSD FLIPR 384 well hyperpolarization assay, HCN1; format: cell-based
Description: HEK-293H cells stably expressing human HCN1, HCN2, or HCN3 channel were plated at a density of 45-50×10^3 cells/well in a 384 well format fluorescent imaging plate reader system (FLIPR®^384) in 50 μl/well of DMEM supplemented with 10% fetal bovine serum and penicillin/streptomycin. The cells were cultured for 24-48 hours in a 5% CO2/air humidified incubator at 37° C.
The cells seeded on the microtiter plates were incubated in 50 μl HBSS, as described in Example 2. Optionally, HBSS was supplemented with about 25 mM of KCl to further enhance the assay window. A membrane potential sensitive dye (MPSD), Component-A of the Membrane Potential Assay Kit, (Product No. R-8034, Molecular Devices Corporation of Sunnyvale, Calif.) was dissolved in the HBSS solution (1 vial/0.5 L). The excess saline was removed to fit the residual volume of about 1 μl to 5 μl. […]
Membrane potentials were measured at room temperature (21°-23°) for each of the above-described saline conditions using a fluorescent imaging plate reader system (FLIPR®, Molecular Devices of Sunnyvale, Calif.). […]
HEK-293H cells stably expressing human HCN1 channel were plated as described in Example 3 above. […] The change in fluorescence (ΔF) was measured for a total assay time of about 180 seconds. […]

CCN(c1ccccc1)c1cc(=NC)n(C)c(C)n1.Cl [ZD7288]
effectively blocked hyperpolarization: blockade of hyperpolarization (change in fluorescence) (human HCN1 [1]; 50 μM ZD7288, HEK-293H HCN1, about 100 seconds) | blockade of hyperpolarization (change in fluorescence), FIG. 4 legend (human HCN1 [1]; cells expressing HCN1) | blockade of hyperpolarization (change in fluorescence) (human HCN1 [2]; 30 μM ZD7288, HEK-293H HCN1, about 180 seconds) | blockade of hyperpolarization (change in fluorescence), FIG. 5 legend (human HCN1 [2]; 50 μM ZD7288, cells expressing HCN1)
